Columns and labels:
[1] = 101 kPa, Liquid
[2] = xn = mol fraction of the nth substance listed; conditions: 101 kPa, Liquid

CCCCO [butan-1-ol]
[1]
Conditions | mass density [kg/m3] | viscosity [mPa·s]
298.15 K | 805.8 | 2.588
308.15 K | 798.08 | 1.991
318.15 K | 790.22 | 1.555
328.15 K | 782.17 | 1.228
338.15 K | 773.88 | 0.981

O=C(O)C1CC1 [cyclopropanecarboxylic acid]
[1]
Conditions | mass density [kg/m3] | viscosity [mPa·s]
298.15 K | 1082.92 | 3.306
308.15 K | 1072.97 | 2.603
318.15 K | 1063.04 | 2.102
328.15 K | 1053.12 | 1.739
338.15 K | 1043.2 | 1.459

CO [methanol]
[1]
Conditions | mass density [kg/m3] | viscosity [mPa·s]
298.15 K | 787.01 | 0.556
308.15 K | 777.54 | 0.484
318.15 K | 767.98 | 0.424
328.15 K | 758.28 | 0.372

O=C(O)C1CC1 [cyclopropanecarboxylic acid] + CCCCO
[2]
Conditions | mass density, 298.15 K [kg/m3] | mass density, 308.15 K [kg/m3] | mass density, 318.15 K [kg/m3] | mass density, 328.15 K [kg/m3] | mass density, 338.15 K [kg/m3] | viscosity, 298.15 K [mPa·s] | viscosity, 308.15 K [mPa·s] | viscosity, 318.15 K [mPa·s] | viscosity, 328.15 K [mPa·s] | viscosity, 338.15 K [mPa·s]
x1 = 0.1 | 831.84 | 823.84 | 815.72 | 807.43 | 798.92 | 2.672 | 2.064 | 1.615 | 1.289 | 1.031
x1 = 0.2 | 858.24 | 850.01 | 841.64 | 833.15 | 824.46 | 2.782 | 2.145 | 1.689 | 1.339 | 1.081
x1 = 0.3 | 884.97 | 876.51 | 867.95 | 859.26 | 850.39 | 2.936 | 2.26 | 1.779 | 1.416 | 1.145
x1 = 0.4 | 912.03 | 903.36 | 894.6 | 885.74 | 876.73 | 3.091 | 2.374 | 1.863 | 1.488 | 1.207
x1 = 0.5 | 939.3 | 930.44 | 921.51 | 912.47 | 903.33 | 3.217 | 2.475 | 1.944 | 1.556 | 1.266
x1 = 0.6 | 966.97 | 957.92 | 948.81 | 939.61 | 930.34 | 3.319 | 2.558 | 2.016 | 1.62 | 1.324
x1 = 0.6987 | 994.72 | 985.5 | 976.22 | 966.86 | 957.46 | 3.386 | 2.616 | 2.079 | 1.671 | 1.37
x1 = 0.7996 | 1023.6 | 1014.15 | 1004.68 | 995.17 | 985.6 | 3.401 | 2.634 | 2.11 | 1.708 | 1.41
x1 = 0.9 | 1053 | 1043.31 | 1033.63 | 1023.94 | 1014.21 | 3.362 | 2.628 | 2.109 | 1.723 | 1.432
x1 = 1 | 1082.92 | 1072.97 | 1063.04 | 1053.12 | 1043.2 | 3.306 | 2.603 | 2.102 | 1.739 | 1.459

CCCO [propan-1-ol]
[1]
Conditions | mass density [kg/m3] | viscosity [mPa·s]
298.15 K | 799.6 | 1.955
308.15 K | 791.49 | 1.538
318.15 K | 783.22 | 1.224
328.15 K | 774.73 | 0.986
338.15 K | 765.98 | 0.801

CCO [ethanol]
[1]
Conditions | mass density [kg/m3] | viscosity [mPa·s]
298.15 K | 785.44 | 1.097
308.15 K | 776.78 | 0.908
318.15 K | 767.94 | 0.756
328.15 K | 758.92 | 0.634

O=C(O)C1CC1 [cyclopropanecarboxylic acid] + CCCO
[2]
Conditions | mass density, 298.15 K [kg/m3] | mass density, 308.15 K [kg/m3] | mass density, 318.15 K [kg/m3] | mass density, 328.15 K [kg/m3] | mass density, 338.15 K [kg/m3] | viscosity, 298.15 K [mPa·s] | viscosity, 308.15 K [mPa·s] | viscosity, 318.15 K [mPa·s] | viscosity, 328.15 K [mPa·s] | viscosity, 338.15 K [mPa·s]
x1 = 0.1 | 832.12 | 823.73 | 815.19 | 806.46 | 797.48 | 2.118 | 1.667 | 1.325 | 1.068 | 0.87
x1 = 0.2 | 863.75 | 855.12 | 846.35 | 837.42 | 828.26 | 2.33 | 1.833 | 1.451 | 1.169 | 0.953
x1 = 0.3 | 894.25 | 885.41 | 876.46 | 867.36 | 858.07 | 2.568 | 2.002 | 1.583 | 1.276 | 1.041
x1 = 0.4138 | 927.62 | 918.58 | 909.45 | 900.17 | 890.75 | 2.82 | 2.19 | 1.733 | 1.396 | 1.141
x1 = 0.5001 | 952.13 | 942.95 | 933.7 | 924.34 | 914.85 | 2.988 | 2.317 | 1.834 | 1.481 | 1.211
x1 = 0.6 | 979.77 | 970.45 | 961.07 | 951.61 | 942.03 | 3.14 | 2.437 | 1.929 | 1.56 | 1.282
x1 = 0.7 | 1006.34 | 996.88 | 987.37 | 977.81 | 968.16 | 3.235 | 2.517 | 2.002 | 1.626 | 1.342
x1 = 0.8 | 1032.24 | 1022.8 | – | 1003.51 | 993.78 | 3.299 | 2.574 | 2.06 | 1.678 | 1.392
x1 = 0.9 | 1057.82 | 1048.15 | 1038.38 | 1028.6 | 1018.78 | 3.316 | 2.617 | 2.092 | 1.713 | 1.429
x1 = 1 | 1082.92 | 1072.97 | 1063.04 | 1053.12 | 1043.2 | 3.306 | 2.603 | 2.102 | 1.739 | 1.459

CCCCO [butan-1-ol] + O=C(O)C1CC1
[2], x2 = 0
Conditions | mass density [kg/m3] | viscosity [mPa·s]
298.15 K | 805.8 | 2.588
308.15 K | 798.08 | 1.991
318.15 K | 790.22 | 1.555
328.15 K | 782.17 | 1.228
338.15 K | 773.88 | 0.981

CO [methanol] + O=C(O)C1CC1
[2], x2 = 0
Conditions | mass density [kg/m3] | viscosity [mPa·s]
298.15 K | 787.01 | 0.556
308.15 K | 777.54 | 0.484
318.15 K | 767.98 | 0.424
328.15 K | 758.28 | 0.372

O=C(O)C1CC1 [cyclopropanecarboxylic acid] + CCO
[2]
Conditions | mass density, 298.15 K [kg/m3] | mass density, 308.15 K [kg/m3] | mass density, 318.15 K [kg/m3] | mass density, 328.15 K [kg/m3] | viscosity, 298.15 K [mPa·s] | viscosity, 308.15 K [mPa·s] | viscosity, 318.15 K [mPa·s] | viscosity, 328.15 K [mPa·s]
x1 = 0.0787 | 820.26 | 811.57 | 802.61 | 793.34 | 1.272 | 1.043 | 0.865 | 0.723
x1 = 0.161 | 853.87 | 844.96 | 835.92 | 826.69 | 1.469 | 1.201 | 0.99 | 0.825
x1 = 0.2475 | 886.51 | 877.38 | 868.1 | 858.68 | 1.711 | 1.388 | 1.136 | 0.947
x1 = 0.3384 | 917.74 | 908.48 | 899.1 | 889.59 | 1.985 | 1.596 | 1.299 | 1.073
x1 = 0.4341 | 947.8 | 938.44 | 928.98 | 919.39 | 2.279 | 1.814 | 1.47 | 1.208
x1 = 0.535 | 976.75 | 967.28 | 957.74 | 948.09 | 2.562 | 2.029 | 1.636 | 1.342
x1 = 0.6415 | 1004.67 | 995.1 | 985.47 | 975.77 | 2.818 | 2.225 | 1.789 | 1.467
x1 = 0.7542 | 1031.56 | 1021.89 | 1012.17 | 1002.41 | 3.035 | 2.391 | 1.895 | 1.557
x1 = 0.8734 | 1057.73 | 1047.94 | 1038.12 | 1028.3 | 3.204 | 2.532 | 2.024 | 1.674
x1 = 1 | 1082.92 | 1072.97 | 1063.04 | 1053.12 | 3.306 | 2.603 | 2.102 | 1.739

— the NIST ThermoML archive (doi:10.1021/je800930v)
